Experimental data: paper PMC2931804 (Clinical cancer research : an official journal of the …, 2010)
“Also recorded” adds a separate entry of the source.

Tests used:
thymidylate synthase [1] = experiment: Tumor thymidylate synthase expression by RT-PCR in liver metastasis biopsies; format: in vivo, human; settings: posttreatment biopsies at the MTD levels
thymidylate synthase [2] = settings: in vitro and in vivo models, quantitative-PCR analysis; cited from earlier work

O=C(CCCCCCC(=O)Nc1ccccc1)NO [vorinostat, suberoylanilide hydroxamic acid]
Impact of vorinostat on intratumoral thymidylate synthase expression (thymidylate synthase [1]): No definitive impact; also recorded: no clear signs of thymidylate synthase downregulation
Downregulation of thymidylate synthase expression (thymidylate synthase [2]): ≤ 100 fold
